Laboratory results: patent US20260207604A1, “COMPOUND AND USE THEREOF” (ONQUALITY PHARMACEUTICALS CHINA LTD., priority 2022, published 2026)

What was measured:
CDK2/cyclin E = CDK2/cyclin E (Homo sapiens, UniProt P24941); assay: KinaseProfile radiometric protein kinase assay, CDK2/cyclin E; format: biochemical
Protocol: (§1) The KinaseProfile radiometric protein kinase assay was used to evaluate the inhibitory activity of the compounds against CDK2/cyclin E, CDK4/cyclin D, CDK6/cyclin D, CDK7/cyclin H and CDK9/cyclin T.
(§2) The compounds were prepared in 100% DMSO at a final 50× stock concentration. The working stock solution was added as the first component to the assay wells. CDK2/cyclin E, CDK4/cyclin D, CDK6/cyclin D, CDK7/cyclin H, and CDK9/cyclin T were added in their respective kinase buffers: (CDK4: 8 mM MOPS pH 7.0, 0.2 mM EDTA, 0.03% BSA, 0.03% Tween 20, 20 mM DTT, and 0.2 mg/ml Rb fragment, 10 mM Magnesium acetate; CDK2, CDK6: 8 mM MOPS pH 7.0, 0.2 mM EDTA, 0.1 mg/mL histone H1, 10 mM Magnesium acetate; CDK7: 8 mM MOPS pH 7.0, 0.2 mM EDTA, 500 μM peptide, 10 mM Magnesium acetate; CDK9: 8 mM MOPS pH 7.0, 0.2 mM EDTA, 100 μM […], 10 mM Magnesium acetate) and [γ-^33 P-ATP] was included in the reaction mixture. The reaction was initiated by the addition of the Mg/ATP mixture and incubated at room temperature for 40 minutes. The reaction was terminated by the addition of 0.5% phosphoric acid. Then, 10 μL of the reaction mixture was spotted onto P30 filter pads, washed four times (1 minute each) with 0.425% phosphoric acid, followed by a single wash with methanol. The pads were then dried and counted. The data were recorded, inhibition rates were calculated, and IC50 values were determined accordingly. Table 2 summarizes the in vitro enzymatic inhibitory activity of the compounds of the present application.

CDK4/cyclin D = CDK4/cyclin D (Homo sapiens, UniProt P11802); assay: KinaseProfile radiometric protein kinase assay, CDK4/cyclin D; format: biochemical
Protocol: as §1, §2

CDK7/cyclin H = CDK7/cyclin H (Homo sapiens, UniProt P50613); assay: KinaseProfile radiometric protein kinase assay, CDK7/cyclin H; format: biochemical
Protocol: as §1, §2

[1] = system: 5-FU-induced diarrhea model; assay: 5-FU-induced diarrhea model, 5-FU 3-day model; format: in vivo, Balb/c mice; conditions: 5-FU 60 mg/kg once a day for 3 days, mice
Protocol: The 5-FU-induced diarrhea model was used as an experimental model of the present invention to evaluate the in vivo activity of the compounds.
Balb/c mice (20-25 g, 7-8 weeks old, Jihui) were acclimated for one week and then randomly assigned to 3 groups (n=10 per group): control group, 5-FU group, and CDK inhibitor group. […] […] […] From Day 1 to Day 7, diarrhea severity was assessed daily for each mouse according to the diarrhea scoring system.
The diarrhea scoring system was based on the method by Akinobu Kurita (Cancer Chemother Pharmacol 2000; 46:211-20), Grade 0: normal stool; Grade 1: mild diarrhea, slightly soft stool and wet stool; Grade 2: moderate diarrhea, loose stool with slight perianal staining; Grade 3: severe diarrhea, loose watery stool with severe perianal staining.
The diarrhea relief rate (%) was calculated as follows: […]

[2] = system: Irinotecan-induced constipation model; assay: Irinotecan-induced constipation model; format: in vivo, Sprague-Dawley rats; conditions: irinotecan 260 mg/kg once a day, 1 day, rats
From the text: Sprague-Dawley rats (180-200 g, 7-8 weeks old, Jihui) were acclimated for 7 days and randomly divided into three groups: control group, irinotecan group, and CDK inhibitor group, with 10 rats per group. The control group received the same vehicle orally as the CDK inhibitor group, followed by an injection of the same vehicle as the irinotecan group; the irinotecan group received the same oral vehicle as the CDK inhibitor group, followed by an injection of irinotecan; the CDK inhibitor group received the CDK inhibitor orally, followed by an injection of irinotecan.
From Day 2 to Day 7, the degree of constipation was assessed for each rat based on the following score:
Constipation assessment: Feces excreted within a 3-hour period were collected and evaluated for morphology and weight using an electronic balance. Stool reduction rate was calculated according to the method of Ji Eun Kim (Lab Anim Res. 2016 December; 32(4): 231-240). Stool reduction rate (%)=(Control group−Irinotecan or CDK inhibitor group)/Control group×100%.
The constipation relief rate of the CDK inhibitor was calculated as follows: Relief rate (%)=([…])/Irinotecan group stool reduction rate×100%.

[3] = Single-dose intravenous and oral pharmacokinetic study in mice; format: in vivo, Balb/c mice
Protocol: Twenty-seven male Balb/c mice were randomly divided into 3 groups, 9 mice in each group. Group 1: mice received an intravenous (IV) dose of Compound 1 at 5 mg/kg with a dosing volume of 5 mL/kg. Blood samples were collected at 0.083, 0.25, 0.5, 1, 2, 4, 6, 8, and 24 hours post-dose using a staggered sampling method. Group 2: mice received an oral (gavage) dose of Compound 1 at 50 mg/kg with a dosing volume of 10 mL/kg. Blood samples were collected at 0.25, 0.5, 1, 2, 4, 6, 8, and 24 hours post-dose using a staggered sampling method. Group 3: mice received an oral (gavage) dose of palbociclib at 50 mg/kg with a dosing volume of 10 mL/kg. Blood samples were collected at 1, 3, 4, 6, 8, 10, 12, and 24 hours post-dose using a staggered sampling method. For each group, 3 samples were collected at each time point. Plasma was separated by centrifugation and stored at −70° C. The concentrations of Compound 1 or palbociclib in plasma were measured using LC-MS/MS.

[4] = 10 mg/kg oral twice a day for 3.5 days
[5] = 25 mg/kg oral twice a day for 3.5 days
[6] = 50 mg/kg oral twice a day for 3 days
[7] = 100 mg/kg oral twice a day for 3 days
[8] = 10 mg/kg oral, 4 hours before irinotecan and 8 hours after irinotecan
[9] = 25 mg/kg oral, 6 hours before irinotecan and 6 hours after irinotecan
[10] = 50 mg/kg oral, 6 hours before irinotecan and 6 hours after irinotecan
[11] = 10 mg/kg oral twice a day for 3 days
[12] = 25 mg/kg oral twice a day for 3 days
[13] = 50 mg/kg oral twice a day for 4 days
[14] = 100 mg/kg oral twice a day for 3.5 days
[15] = 5 mg/kg oral, 4 hours before irinotecan and 8 hours after irinotecan
[16] = 50 mg/kg oral, 4 hours before irinotecan and 8 hours after irinotecan
[17] = 100 mg/kg oral, 6 hours before irinotecan and 6 hours after irinotecan
[18] = 25 mg/kg oral, 4 hours before irinotecan and 8 hours after irinotecan
[19] = 100 mg/kg oral, 4 hours before irinotecan and 8 hours after irinotecan
[20] = mouse, male Balb/c mice, IV 5 mg/kg, plasma
[21] = mouse, male Balb/c mice, PO 50 mg/kg, plasma

CDK7/cyclin H, sequence (P50613 whole entry): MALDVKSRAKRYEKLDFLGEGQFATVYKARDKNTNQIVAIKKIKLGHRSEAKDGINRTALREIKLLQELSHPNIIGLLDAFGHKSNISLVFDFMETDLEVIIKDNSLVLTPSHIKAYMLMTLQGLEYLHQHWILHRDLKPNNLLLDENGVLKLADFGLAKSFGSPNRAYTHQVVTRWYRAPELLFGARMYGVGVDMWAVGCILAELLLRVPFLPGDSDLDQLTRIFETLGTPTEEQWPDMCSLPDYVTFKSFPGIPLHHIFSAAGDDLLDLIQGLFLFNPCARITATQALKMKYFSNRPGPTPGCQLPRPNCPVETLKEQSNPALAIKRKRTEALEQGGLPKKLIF
CDK7/cyclin H, sequence (P51946 whole entry partner): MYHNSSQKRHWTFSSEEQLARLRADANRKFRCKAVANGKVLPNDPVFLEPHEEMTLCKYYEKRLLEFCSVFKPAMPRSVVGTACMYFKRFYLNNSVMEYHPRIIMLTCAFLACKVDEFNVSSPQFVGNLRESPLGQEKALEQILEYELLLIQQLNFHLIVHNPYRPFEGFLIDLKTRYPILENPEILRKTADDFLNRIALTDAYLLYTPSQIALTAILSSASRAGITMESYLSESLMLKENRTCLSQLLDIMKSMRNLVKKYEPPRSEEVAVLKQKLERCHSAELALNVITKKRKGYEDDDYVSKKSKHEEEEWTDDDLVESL
CDK7/cyclin H, sequence (P51948 whole entry partner): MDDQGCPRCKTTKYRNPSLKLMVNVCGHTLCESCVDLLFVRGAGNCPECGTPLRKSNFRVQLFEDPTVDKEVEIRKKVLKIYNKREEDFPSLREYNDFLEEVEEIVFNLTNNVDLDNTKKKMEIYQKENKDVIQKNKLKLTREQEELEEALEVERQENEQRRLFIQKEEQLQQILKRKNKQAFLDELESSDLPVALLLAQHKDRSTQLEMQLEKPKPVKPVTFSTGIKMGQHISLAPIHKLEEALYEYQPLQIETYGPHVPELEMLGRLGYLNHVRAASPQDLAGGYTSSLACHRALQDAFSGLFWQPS
CDK4/cyclin D, sequence (P11802 whole entry): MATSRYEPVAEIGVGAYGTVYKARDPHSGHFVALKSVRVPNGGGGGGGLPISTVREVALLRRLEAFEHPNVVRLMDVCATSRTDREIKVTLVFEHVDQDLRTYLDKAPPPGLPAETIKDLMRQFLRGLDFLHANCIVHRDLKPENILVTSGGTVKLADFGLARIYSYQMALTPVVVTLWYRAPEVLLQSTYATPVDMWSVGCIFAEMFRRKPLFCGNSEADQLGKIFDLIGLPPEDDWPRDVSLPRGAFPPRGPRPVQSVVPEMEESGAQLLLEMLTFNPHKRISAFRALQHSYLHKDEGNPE
CDK4/cyclin D, sequence (P30281 whole entry partner): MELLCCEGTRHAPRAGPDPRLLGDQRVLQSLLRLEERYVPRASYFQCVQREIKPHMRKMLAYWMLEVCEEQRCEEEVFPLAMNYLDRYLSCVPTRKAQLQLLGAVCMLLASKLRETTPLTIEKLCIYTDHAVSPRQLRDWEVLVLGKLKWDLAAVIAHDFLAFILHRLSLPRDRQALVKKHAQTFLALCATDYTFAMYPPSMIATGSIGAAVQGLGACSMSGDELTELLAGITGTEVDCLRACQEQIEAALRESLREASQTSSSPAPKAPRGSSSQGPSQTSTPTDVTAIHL

## CC(=O)c1c(C)c2cnc(Nc3ccc(N4CCN(S(=O)(=O)NCCCN)CC4)cn3)nc2n(C2CCCC2)c1=O [Compound 4]
CDK2/cyclin E
  IC50: > 3 µM
CDK4/cyclin D
  IC50: < 0.05 µM
CDK7/cyclin H
  IC50: > 3 µM
[1]; 5 mg/kg oral twice a day for 3 days
  diarrhea relief rate: 30%
[1]; [4]
  diarrhea relief rate: 50%
[1]; 10 mg/kg oral twice a day for 4 days
  diarrhea relief rate: 40%
[1]; [5]
  diarrhea relief rate: 55%
[1]; [6]
  diarrhea relief rate: 60%
[1]; [7]
  diarrhea relief rate: 40%
[2]; [8]
  constipation relief rate: 40%
[2]; [9]
  constipation relief rate: 50%
[2]; [10]
  constipation relief rate: 70%
[2]; 100 mg/kg oral, 8 hours before irinotecan and 4 hours after irinotecan
  constipation relief rate: 40%
[2]; 100 mg/kg oral, 12 hours before irinotecan
  constipation relief rate: 30%

## CC(=O)c1c(C)c2cnc(Nc3ccc(N4CCN(S(=O)(=O)NCC(C)(C)N)CC4)cn3)nc2n(C2CCCC2)c1=O [Compound 2]
CDK2/cyclin E
  IC50: > 10 µM
CDK4/cyclin D
  IC50: < 0.05 µM
CDK7/cyclin H
  IC50: > 3 µM
[1]; [11]
  diarrhea relief rate: 25%
[1]; [12]
  diarrhea relief rate: 40%
[1]; [5]
  diarrhea relief rate: 50%
[1]; [6]
  diarrhea relief rate: 60%
[1]; [13]
  diarrhea relief rate: 40%
[1]; [14]
  diarrhea relief rate: 50%
[2]; [15]
  constipation relief rate: 25%
[2]; [16]
  constipation relief rate: 80%
[2]; [17]
  constipation relief rate: 80%
[2]; 150 mg/kg oral, 6 hours before irinotecan and 6 hours after irinotecan
  constipation relief rate: 60%

## CC(=O)c1c(C)c2c(n(C3CCCC3)c1=O)=NC(Nc1ccc(N3CCN(S(=O)(=O)NCCN)CC3)cn1)NC=2 (stereo not drawn) [Compound 1]
CDK2/cyclin E
  IC50: > 10 µM
CDK4/cyclin D
  IC50: < 0.05 µM
CDK7/cyclin H
  IC50: > 10 µM
[1]; [4]
  diarrhea relief rate: 40%
[1]; [12]
  diarrhea relief rate: 60%
[1]; [6]
  diarrhea relief rate: 40%
[1]; 75 mg/kg oral twice a day for 4 days
  diarrhea relief rate: 55%
[1]; [7]
  diarrhea relief rate: 50%
[1]; [14]
  diarrhea relief rate: 40%
[2]; 2.5 mg/kg oral, 4 hours before irinotecan and 8 hours after irinotecan
  constipation relief rate: 20%
[2]; 5 mg/kg oral, 6 hours before irinotecan and 6 hours after irinotecan
  constipation relief rate: 30%
[2]; [18]
  constipation relief rate: 75%
[2]; [10]
  constipation relief rate: 50%
[2]; [19]
  constipation relief rate: 40%
[2]; [17]
  constipation relief rate: 40%
[3]; male Balb/c mice, PO 50 mg/kg vs IV 5 mg/kg
  F: 0.6%
[3]; mice, PO 50 mg/kg, in words
  plasma concentration following oral administration compared with palbociclib: significantly lower than that of palbociclib
[3]; [20]
  AUC(0-t): 670 ng·h/mL
  clearance: 119 mL/min/kg
  half-life: 2.69 h
[3]; mouse, male Balb/c mice, IV 5 mg/kg, plasma, read-out: Vdss
  Vd: 11 L/kg
[3]; [21]
  AUC(0-t): 39.2 ng·h/mL
  Cmax: 21 ng/mL
  Tmax: 1 h

## CC(=O)c1c(C)c2cnc(Nc3ccc(N4CCN(S(=O)(=O)NCC(C)CN)CC4)cn3)nc2n(C2CCCC2)c1=O (stereo not drawn) [Compound 5]
CDK2/cyclin E
  IC50: > 3 µM
CDK4/cyclin D
  IC50: < 0.1 µM
CDK7/cyclin H
  IC50: > 10 µM
[1]; [11]
  diarrhea relief rate: 40%
[1]; [4]
  diarrhea relief rate: 75%
[1]; 30 mg/kg oral twice a day for 4 days
  diarrhea relief rate: 30%
[1]; [6]
  diarrhea relief rate: 40%
[1]; 60 mg/kg oral twice a day for 3.5 days
  diarrhea relief rate: 50%
[1]; [7]
  diarrhea relief rate: 50%
[2]; [15]
  constipation relief rate: 25%
[2]; [9]
  constipation relief rate: 40%
[2]; [16]
  constipation relief rate: 80%
[2]; 50 mg/kg oral, 8 hours before irinotecan and 4 hours after irinotecan
  constipation relief rate: 60%
[2]; [19]
  constipation relief rate: 50%
[2]; 100 mg/kg oral, 10 hours before irinotecan and 2 hours after irinotecan
  constipation relief rate: 40%

## CC(=O)c1c(C)c2cnc(Nc3ccc(N4CCN(S(=O)(=O)NCC(C)(C)CN)CC4)cn3)nc2n(C2CCCC2)c1=O [Compound 6]
CDK2/cyclin E
  IC50: > 10 µM
CDK4/cyclin D
  IC50: < 0.05 µM
CDK7/cyclin H
  IC50: > 3 µM
[1]; [11]
  diarrhea relief rate: 30%
[1]; 20 mg/kg oral twice a day for 3.5 days
  diarrhea relief rate: 50%
[1]; 30 mg/kg oral twice a day for 3 days
  diarrhea relief rate: 50%
[1]; [13]
  diarrhea relief rate: 75%
[1]; 80 mg/kg oral twice a day for 3.5 days
  diarrhea relief rate: 60%
[1]; [7]
  diarrhea relief rate: 60%
[2]; [8]
  constipation relief rate: 40%
[2]; [18]
  constipation relief rate: 75%
[2]; [9]
  constipation relief rate: 60%
[2]; [10]
  constipation relief rate: 75%
[2]; 150 mg/kg oral, 12 hours before irinotecan
  constipation relief rate: 25%

## CC(=O)c1c(C)c2cnc(Nc3ccc(N4CCN(S(=O)(=O)NCC(C)N)CC4)cn3)nc2n(C2CCCC2)c1=O (stereo not drawn) [Compound 3]
CDK2/cyclin E
  IC50: > 10 µM
CDK4/cyclin D
  IC50: < 0.05 µM
CDK7/cyclin H
  IC50: > 10 µM
[1]; 5 mg/kg oral twice a day for 4 days
  diarrhea relief rate: 25%
[1]; [11]
  diarrhea relief rate: 30%
[1]; [4]
  diarrhea relief rate: 40%
[1]; [6]
  diarrhea relief rate: 40%
[1]; 50 mg/kg oral twice a day for 3.5 days
  diarrhea relief rate: 40%
[1]; [7]
  diarrhea relief rate: 70%
[2]; 25 mg/kg oral, 8 hours before irinotecan and 4 hours after irinotecan
  constipation relief rate: 50%
[2]; 25 mg/kg oral, 12 hours before irinotecan and 0 hours after irinotecan
  constipation relief rate: 30%
[2]; [16]
  constipation relief rate: 60%
[2]; [10]
  constipation relief rate: 70%
